Data published in US20250161338A1, “Compounds for Anti-aging Intervention” (AGENCY FOR SCIENCE, TECHNOLOGY AND RESEARCH, priority 2022, published 2025).
Where a name gives a salt, the structure may show the parent alone.

Assays:
[1] = system: prototrophic yeast strain (CEN.PK113-7D); experiment: Propidium iodide fluorescence-based CLS method in yeast (incl. high-throughput screening); assay type: cell-based, Saccharomyces cerevisiae; conditions: concentration tested 100 μM; for Yeast CLS increase: Yes/No call of the screen; for PI intensity: solvent DMSO or water, chronological age point Day 7 (72 h growth = Day 1), lower = more survival;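 as to PI intensity: untreated reference is eight DMSO and water control wells per plate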
Method: Yeast strain was recovered from frozen glycerol stock at 30° C. on YPD agar medium. Yeast was left to propagate in SD medium overnight at 30° C. with shaking at 220 revolutions per minute (rpm). Cells propagated overnight were diluted to a starting optical density at 600 nm (OD600) of approximately 0.2 in fresh SD medium to begin the chronological lifespan (CLS) experiments.
(§1) CLS experiments were performed in 96-well plates with 200 μL yeast culture. Cellular inoculums were transferred into 96-well plates containing serially double-diluted concentrations (0 to 10 nM) of rapamycin. Cellular inoculum was transferred into 96-well plates containing serially double-diluted concentrations (0 to 8 mM) of 2,5-anhydro-D-mannitol, D-fructose, D-mannitol, D-maltose, and D-sorbitol in SD medium. Cells were incubated at 30° C., and the growth was measured at different time points. […] Cell survival was quantified at various age time points by three different approaches: (i) PI fluorescence-based method, (ii) outgrowth in YPD liquid medium, and (iii) spotting assay (FIG. 1).
Yeast cells (40 μL) from different age time points were transferred into a second 96-well plate (different to the 96-well plate in which the CLS analysis as outlined above was performed). Cells were washed and incubated in 100 μL 1×phosphate buffered saline (PBS) with propidium iodide (PI) (5 μg/mL) for 15 minutes in the dark. Positive and negative control samples were included for quantitative analysis. Positive control (cells boiled at 100° C. for 15 minutes) was PI-stained and processed in the same 96-well plate. Samples without PI-stained cells served as the negative control. After incubation, cells were washed and resuspended in 100 μL PBS. The fluorescence reading of the samples (excitation and emission wavelengths at 535 nm and 617 nm, respectively) and OD600 were measured with a microplate reader (BioTek, Winooski, Vermont, United States). The fluorescence intensity of each sample was normalized with OD600. The background fluorescence signal of the unstained negative sample was subtracted from the normalized fluorescence intensity of each sample. The obtained fluorescence intensity of the positive control (boiled dead cells) was considered 0% cell survival. Cell death was validated by allowing the boiled dead cells to grow in medium. Cell survival at different age time points of samples were calculated by normalizing the fluorescence intensity with positive control sample (boiled cells).
High-throughput screening of various chemicals was tested using the same protocol for the propidium iodide fluorescence-based method as described above. The prototrophic yeast strain (CEN.PK113-7D) was grown in the synthetic defined medium with different chemical reagents at their respective single testing concentration (Table 1) in addition to eight replicates of DMSO and water controls in 96-well plates at 30° C.

[2] = system: prototrophic yeast strain (CEN.PK113-7D); experiment: Yeast outgrowth in YPD liquid medium (CLS of aged cells); assay type: cell-based, Saccharomyces cerevisiae; conditions: concentration tested 100 μM; OD600 nm after 24 h in YPD at 30° C.; age point day 14
Method: as §1
Outgrowth (OD600) of aged cells was measured by the microplate reader. Quantification of cell survival for each age point was determined as relative to Day 1 (considered 100% cell survival). This quantification was performed by using the formula,
[formula] • where OutgrowthDay n refers to the OD600 nm absorbance reading recorded on a specific day, OutgrowthDay 1 refers to the OD600 nm absorbance reading recorded on the first day where 100% cell survival is assumed.
The CLS of the aged cells was further determined by the yeast outgrowth in YPD liquid medium method as described above. […] At chronological age point day 14, 3-μL of culture were transferred to a second 96-well plate containing 200 μL YPD medium.

With `O=C(O)c1ccc2c(c1)C(=O)c1ccccc1C2=O` [Anthraquinone-2-carboxylic acid] the “Yeast CLS increase” value [1] was “No”, the PI intensity [1] was 96,099.2 and the Outgrowth [2] was 0.1.
`OCC1=C[C@@H](O)[C@@H]2C=CO[C@@H](O[C@@H]3O[C@H](CO)[C@@H](O)[C@H](O)[C@H]3O)[C@H]12` [Aucubin] was tested, and the “Yeast CLS increase” value [1] was “No”, the PI intensity [1] was 58,414.0 and the Outgrowth [2] was 0.1.
For `NC(=O)[C@@H]1CC[C@@H]2CN1C(=O)N2OS(=O)(=O)O` [Avibactam (sodium), reference compound], the “Yeast CLS increase” value [1] was “No”, the PI intensity [1] was 73,562.3 and the Outgrowth [2] was 0.1.
For `O=c1c(O[C@@H]2O[C@H](CO)[C@@H](O)[C@H](O)[C@H]2O[C@@H]2O[C@H](CO)[C@@H](O)[C@H](O)[C@H]2O)c(-c2ccc(O)c(O)c2)oc2cc(O)cc(O)c12` [Baimaside], the “Yeast CLS increase” value [1] was “No”, the PI intensity [1] was 61,895.7 and the Outgrowth [2] was 0.2.
With `CC(=O)OCc1ccccc1` [Benzyl acetate] the “Yeast CLS increase” value [1] was “No”, the PI intensity [1] was 74,321.9 and the Outgrowth [2] was 0.1.
In the case of `C[C@@H](O)[C@H]1C(=O)N2C(C(=O)[O-])=C(SC3Cn4cnc[n+]4C3)[C@H](C)[C@H]12` (stereo partly drawn) [Biapenem, reference compound], the “Yeast CLS increase” value [1] is reported as “No”, the PI intensity [1] is reported as 71,409.3 and the Outgrowth [2] is reported as 0.1.
`OC(CCN1CCCCC1)(c1ccccc1)C1CC2C=CC1C2` (stereo not drawn) [Biperiden (Hydrochloride), reference compound] was tested, and the “Yeast CLS increase” value [1] was “No”, the PI intensity [1] was 67,178.1 and the Outgrowth [2] was 0.2.
For `O=[N+]([O-])C(Br)(CO)CO` [Bronopol], the “Yeast CLS increase” value [1] was “No”, the PI intensity [1] was 79,284.9 and the Outgrowth [2] was 0.1.
With `C=C1CC[C@H](O)C/C1=C/C=C1\CCC[C@]2(C)[C@@H]([C@H](C)CCCC(C)(C)O)CC[C@@H]12` [Calcifediol, reference compound] the “Yeast CLS increase” value [1] was “No”, the PI intensity [1] was 60,747.4 and the Outgrowth [2] was 0.2.
In the case of `CSCCNc1nc(SCCC(F)(F)F)nc2c1ncn2[C@@H]1O[C@H](COP(=O)([O-])OP(=O)([O-])C(Cl)(Cl)P(=O)([O-])[O-])[C@@H](O)[C@H]1O.[Na+].[Na+].[Na+].[Na+]` [Cangrelor (tetrasodium), reference compound], the “Yeast CLS increase” value [1] is reported as “No”, the PI intensity [1] is reported as 83,173.6 and the Outgrowth [2] is reported as 0.1.
With `C[C@]12CCC(=O)C=C1C=C[C@@H]1[C@@H]2CC[C@@]2(C)[C@H]1CC[C@@]21CCC(=O)O1` [Canrenone, reference compound] the “Yeast CLS increase” value [1] was “No”, the PI intensity [1] was 64,295.2 and the Outgrowth [2] was 0.1.
With `CC1=C(C(=O)O)N2C(=O)[C@@H](NC(=O)[C@H](N)c3ccc(O)cc3)[C@H]2SC1` [Cefadroxil, reference compound] the “Yeast CLS increase” value [1] was “No”, the PI intensity [1] was 70,326.1 and the Outgrowth [2] was 0.1.
With `CO/N=C(\C(=O)N[C@@H]1C(=O)N2C(C(=O)O)=C(Cn3ccc(=N)n3CCO)CS[C@H]12)c1csc(N)n1.O=S(=O)(O)O` [Cefoselis (sulfate), reference compound] the “Yeast CLS increase” value [1] was “No”, the PI intensity [1] was 70,425.6 and the Outgrowth [2] was 0.1.
With `COCc1c(C(C)C)nc(C(C)C)c(/C=C/[C@@H](O)C[C@@H](O)CC(=O)[O-])c1-c1ccc(F)cc1.[Na+]` [Cerivastatin (sodium), reference compound] the “Yeast CLS increase” value [1] was “No”, the PI intensity [1] was 64,250.5 and the Outgrowth [2] was 0.1.
With `O=C(/C=C/c1ccc(O)c(O)c1)O[C@@H]1C[C@](O)(C(=O)O)C[C@@H](O)[C@H]1O` [Chlorogenic acid] the “Yeast CLS increase” value [1] was “No”, the PI intensity [1] was 66,593.5 and the Outgrowth [2] was 0.1.
With `CC1(C)C[C@@H]1C(=O)N/C(=C\CCCCSC[C@H](N)C(=O)O)C(=O)O` [Cilastatin, reference compound] the “Yeast CLS increase” value [1] was “No”, the PI intensity [1] was 55,728.9 and the Outgrowth [2] was 0.1.
`O=C(O)C=Cc1ccccc1` [Cinnamic acid] was tested, and the “Yeast CLS increase” value [1] was “No”, the PI intensity [1] was 60,256.3 and the Outgrowth [2] was 0.1.
For `COc1cc2oc(-c3ccc(O)cc3)cc(=O)c2c(O)c1OC` [Cirsimaritin], the “Yeast CLS increase” value [1] was “No”, the PI intensity [1] was 85,017.1 and the Outgrowth [2] was 0.1.
`O=C(/C=C/c1ccc(O)c(O)c1)O[C@H]1[C@H](O)C[C@](O)(C(=O)O)C[C@H]1O` [Cryptochlorogenic acid] was tested, and the “Yeast CLS increase” value [1] was “No”, the PI intensity [1] was 65,040.0 and the Outgrowth [2] was 0.1.
`OC[C@H]1O[C@@H](Oc2cc3c(O)cc(O)cc3[o+]c2-c2ccc(O)c(O)c2)[C@H](O)[C@@H](O)[C@H]1O.[Cl-]` [Cyanidin-3-O-galactoside (chloride)] was tested, and the “Yeast CLS increase” value [1] was “No”, the PI intensity [1] was 63,761.1 and the Outgrowth [2] was 0.1.
In the case of `OC[C@H]1O[C@@H](O[C@H]2[C@H](O)[C@@H](O)[C@H](O)O[C@@H]2CO)[C@H](O)[C@@H](O)[C@@H]1O` [D-(+)-Cellobiose], the “Yeast CLS increase” value [1] is reported as “No”, the PI intensity [1] is reported as 69,857.4 and the Outgrowth [2] is reported as 0.1.
For `O=C[C@H](O)[C@@H](O)[C@H](O)[C@H](O)C(=O)O` [D-Glucuronic acid], the “Yeast CLS increase” value [1] was “No”, the PI intensity [1] was 48,839.6 and the Outgrowth [2] was 0.1.
`C[C@@H]1CC[C@@]2(OC1)O[C@H]1C[C@H]3[C@@H]4CC=C5C[C@@H](O[C@@H]6O[C@H](CO)[C@@H](O[C@@H]7O[C@H](CO)[C@@H](O)[C@H](O)[C@H]7O)[C@H](O)[C@H]6O[C@@H]6O[C@@H](C)[C@H](O)[C@@H](O)[C@H]6O)CC[C@]5(C)[C@H]4CC[C@]3(C)[C@H]1[C@@H]2C` [Deltonin] was tested, and the “Yeast CLS increase” value [1] was “No”, the PI intensity [1] was 62,357.6 and the Outgrowth [2] was 0.1.
For `O=C(O)Cc1ccccc1Nc1c(Cl)cccc1Cl` [Diclofenac (Sodium), reference compound], the “Yeast CLS increase” value [1] was “No”, the PI intensity [1] was 79,704.3 and the Outgrowth [2] was 0.2.
In the case of `CC(=O)OCC(=O)[C@@]1(OC(C)=O)[C@@H](C)C[C@H]2[C@@H]3C[C@H](F)C4=CC(=O)C=C[C@]4(C)[C@@]3(F)[C@@H](O)C[C@@]21C` [Diflorasone, reference compound], the “Yeast CLS increase” value [1] is reported as “No”, the PI intensity [1] is reported as 71,051.3 and the Outgrowth [2] is reported as 0.1.
In the case of `COS(=O)(=O)[O-].C[N+]1(C)CCC(=C(c2ccccc2)c2ccccc2)CC1` [Diphenmanil (methylsulfate), reference compound], the “Yeast CLS increase” value [1] is reported as “No”, the PI intensity [1] is reported as 78,623.4 and the Outgrowth [2] is reported as 0.1.
`CC1(C)[C@@H](O[C@H]2O[C@H](C(=O)[O-])[C@@H](O)[C@H](O)[C@H]2O[C@@H]2O[C@H](C(=O)[O-])[C@@H](O)[C@H](O)[C@H]2O)CC[C@]2(C)[C@H]3C(=O)C=C4[C@@H]5C[C@@](C)(C(=O)O)CC[C@]5(C)CC[C@@]4(C)[C@]3(C)CC[C@@H]12.[K+].[K+]` [Dipotassium glycyrrhizinate] was tested, and the “Yeast CLS increase” value [1] was “No”, the PI intensity [1] was 68,519.8 and the Outgrowth [2] was 0.1.
`C[C@@H](O)[C@H]1C(=O)N2C(C(=O)O)=C(S[C@@H]3CN[C@H](CNS(N)(=O)=O)C3)[C@H](C)[C@H]12` [Doripenem (monohydrate), reference compound] was tested, and the “Yeast CLS increase” value [1] was “No”, the PI intensity [1] was 69,608.7 and the Outgrowth [2] was 0.1.
With `CC[C@H]1CN2CCc3cc(OC)c(OC)cc3[C@@H]2C[C@@H]1C[C@H]1NCCc2cc(OC)c(OC)cc21` [Emetine (dihydrochloride hydrate), reference compound] the “Yeast CLS increase” value [1] was “No”, the PI intensity [1] was 75,341.5 and the Outgrowth [2] was 0.1.
With `CC1OC(OC2C(=O)c3c(O)cc(O)cc3OC2c2ccc(O)cc2)C(O)C(O)C1O` (stereo not drawn) [Engeletin] the “Yeast CLS increase” value [1] was “Yes”, the PI intensity [1] was 37,144.4 and the Outgrowth [2] was 0.9.
In the case of `COc1cc2c(cc1OC)-c1cc3ccc4c(c3c[n+]1CC2)OCO4.[Cl-]` [Epiberberine (chloride)], the “Yeast CLS increase” value [1] is reported as “Yes”, the PI intensity [1] is reported as 38,027.2 and the Outgrowth [2] is reported as 1.3.
